Experimental data from ChEMBL document CHEMBL1201862, “PubChem BioAssay data set” (2004).
Activity calls are given as the source filed them. No stated cut-off is given here; in the data, actives have a measured IC50 and inactives only a lower limit.

These molecules were tested against Envelope glycoprotein gp160 (Human immunodeficiency virus 1, UniProt Q6QLK5) (assay: inhibitors of HIV fusion peptide binding, primary screen, biochemical, uHTS, fluorescence dequenching (AID 1986)).
Chain of Envelope glycoprotein gp160 (Q6QLK5 whole entry, the tested form may be a part): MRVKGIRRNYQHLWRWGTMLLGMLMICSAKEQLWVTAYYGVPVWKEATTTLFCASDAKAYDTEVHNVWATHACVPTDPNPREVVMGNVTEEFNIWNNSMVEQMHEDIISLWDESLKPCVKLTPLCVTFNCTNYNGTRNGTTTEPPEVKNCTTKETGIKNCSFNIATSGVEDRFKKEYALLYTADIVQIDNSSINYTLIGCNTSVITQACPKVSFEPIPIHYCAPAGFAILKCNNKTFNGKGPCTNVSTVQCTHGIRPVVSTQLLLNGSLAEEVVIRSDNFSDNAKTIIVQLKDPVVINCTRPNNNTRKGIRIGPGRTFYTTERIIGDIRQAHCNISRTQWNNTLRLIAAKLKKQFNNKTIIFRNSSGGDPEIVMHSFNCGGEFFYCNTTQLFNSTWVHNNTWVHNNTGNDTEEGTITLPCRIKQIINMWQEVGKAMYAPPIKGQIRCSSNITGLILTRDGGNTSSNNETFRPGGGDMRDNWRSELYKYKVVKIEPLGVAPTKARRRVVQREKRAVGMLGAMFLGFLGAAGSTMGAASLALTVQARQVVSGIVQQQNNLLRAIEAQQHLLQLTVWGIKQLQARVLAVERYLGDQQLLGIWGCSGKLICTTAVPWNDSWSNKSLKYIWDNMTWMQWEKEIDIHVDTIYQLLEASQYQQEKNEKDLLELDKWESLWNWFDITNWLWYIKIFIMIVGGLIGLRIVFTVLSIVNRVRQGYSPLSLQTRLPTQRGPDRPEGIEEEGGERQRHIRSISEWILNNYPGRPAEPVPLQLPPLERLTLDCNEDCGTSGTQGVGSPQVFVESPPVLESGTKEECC
In the case of `COc1ccc(-c2nn(-c3ccccc3)cc2/C=C2/SC(=S)N(CCC(=O)O)C2=O)c(C)c1`, the IC50 is reported as 12.5 µM (active). In the case of `CCS(=O)(=O)C1=NN2C(=N)/C(=C\c3ccc(OCCOc4cccc(OC)c4)c(OC)c3)C(=O)N=C2S1`, the IC50 is reported as 9.24 µM (active). For `COc1cccc(NS(=O)(=O)c2ccc3c(c2)C2C=CCC2C(c2ccc(C(=O)O)cc2)N3)c1` (stereo not drawn), the IC50 was 11.9 µM (active).
